Measured values reported in patent US12404304B1, “Telomerase reverse transcriptase (TERT) expression enhancing compounds and methods for using the same” (Sierra Sciences, LLC, priority 2007, dated 2025).
Read-outs that look alike come from different tables or passages of the source.

Experiments:
[1] = test system: human TERT expression (hTERT mRNA); assay: Quantitative real-time RT-PCR of hTERT mRNA expression (Ct, transcripts) in compound-treated cells; type: cell-based
From the text: Telomerase is a ribonucleoprotein complex composed of the catalytic protein subunit (human telomerase reverse transcriptase or hTERT) and the RNA template. hTERT expression level can be measured by PCR.
Briefly, amplification of the target sequence is monitored per PCR cycle by detecting the fluorescence signal emitted by an internal probe that is degraded by the 5′ nuclease activity of the Taq polymerase. The emission signal accumulates in each sample, and the Ct required to reach a given fluorescence threshold is determined (Ct stands for Cycle Threshold and is a measure of the number of PCR cycles that are required to amplify a target—thus, a lower Ct score means that there is more abundant hTERT mRNA). Thus, the Ct value of a sample inversely correlates to the quantity of the starting cDNA which correlates to the number of mRNA transcripts. Using the cDNA of known quantity, a standard curve can be generated and used to determine the starting amount of mRNA transcripts based on the […] of each sample.
Quantitative real-time PCR can be done on cDNA from test compound-treated and nontreated cells by use of a ABI Prism 7900 Sequence Detection System (PE Applied Biosystems, Foster City, CA) following the Assays-on-Demand protocol (PE Applied Biosystems, Foster City, CA). Quantitative data can be analyzed using the Sequence Detection System software version 2.1 (PE Applied Biosystems).
The following compounds were tested in assays designed to identify compounds that enhance human TERT expression.

viable cells in culture = assay: Cell viability assay (CellTiter-Glo Luminescent Cell Viability Assay, ATP quantitation, percent of vehicle control)

| Structure (SMILES) | Average Number of hTERT Transcripts ([1]; quantitative real-time RT-PCR) | Average Cell Viability after 24 Hours (% DMSO) (viable cells in culture) | Average Number of hTERT Transcripts [1] |
| --- | --- | --- | --- |
| CCOC(=O)c1ccc(N2C(=O)c3[nH]nc(-c4cccs4)c3C2c2ccc(O)c(OCC)c2)cc1 (stereo not shown) [compound 1199] | 110.78 | 57.55 | – |
| CC1=C(C(=O)OC2CCCCCC2)C(c2ccc([N+](=O)[O-])cc2)C2=C(CC(C)(C)CC2=O)N1 (stereo not shown) [compound 1246] | 27.65 | 83.08 | – |
| CCCCc1c(C)nn(-c2nc(C)c(C(=O)OCC)s2)c1O [compound 1129] | 54.36 | 68.77 | – |
| Cc1ccc(Cc2c(C)nn(-c3nc4ccccc4[nH]3)c2O)cc1 [compound 1143] | 22.65 | 35.07 | – |
| Cc1ccn2c(-c3csc(Nc4ccc(C(=O)O)cc4)n3)c(C)nc2c1 [compound 1320] | 8.00 | 90.39 | – |
| Cc1ccc(NC(=O)NCc2ccccc2F)cc1C [compound 1353] | 3.61 | 87.98 | – |
| Cc1cc(C2CCCCC2)n(O)c(=O)c1 [compound 1250] | 184.64 | 67.25 | – |
| COc1ccc(-c2cc(=O)n3nc(C)c(-c4ccccc4)c3[nH]2)cc1 [compound 1150] | 80.37 | 86.82 | – |
| CCOC(=O)CSc1nc(C)c(CC)c(C)c1C(N)=O [compound 1348] | 5.97 | 106.19 | – |
| CNC(=O)C1CCN(Cc2ccc(F)cc2)CC1 [compound 1358] | 7.53 | 111.88 | – |
| O=C(N/N=C/c1cc(Br)ccc1O)c1cc2ccccc2cc1O [compound 1269] | 93.93 | 68.44 | – |
| S=C(Nc1ccc(Br)cc1)Nc1cccc(Cl)c1 [compound 1344] | 7.86 | 42.95 | – |
| CC(/C=C/C(=O)NO)=C\C(C)C(=O)c1ccc(N(C)C)cc1 (stereo not shown) [compound 1472] | – | 82.14 | 76.60 |
| CCOC(=O)c1ccc(N2C(=O)c3[nH]nc(-c4ccco4)c3C2c2ccc(O)cc2)cc1 (stereo not shown) [compound 1198] | 104.02 | 64.75 | – |
| N=c1ccn2c(n1)O[C@@H]1[C@@H](O)[C@H](CO)O[C@@H]12 [compound 1226] | 31.01 | 77.96 | – |
| Cc1cc(C(=O)N/N=C/c2ccccc2O)c(C)o1 [compound 1282] | 27.61 | 68.67 | – |
| O=C1CC(CSc2nnnn2-c2ccccc2)=NN1c1nc2ccccc2[nH]1 [compound 1119] | 125.15 | 62.38 | – |
| O=C(N/N=C/c1ccccc1O)c1sc2ccccc2c1Cl [compound 1267] | 3.76 | 38.10 | – |
| NC(=O)C1CCN(c2nc3c(S(=O)(=O)c4cccc(Cl)c4)nnn3c3ccsc23)CC1 [compound 1261] | 40.28 | 85.18 | – |
| O=c1c(-c2ccccc2)c[nH]c2c(-c3ccccc3)cnn12 [compound 1161] | 139.82 | 62.93 | – |
| Cc1csc(-n2nc(C)c(CCC(=O)Nc3ccc(Br)cc3)c2O)n1 [compound 1133] | 108.84 | 77.29 | – |
| COc1ccc(OC)c(NC(=O)CSc2ccc(-c3ccccn3)nn2)c1 [compound 1254] | 47.45 | 66.42 | – |

| Structure (SMILES) | Average Number of hTERT Transcripts ([1]; quantitative real-time RT-PCR) | Average Cell Viability after 24 Hours (% DMSO) (viable cells in culture) | Average Number of hTERT Transcripts [1] |
| --- | --- | --- | --- |
| COC(=O)COc1ccc2c(=O)c(Oc3ccc(-c4ccccc4)cc3)coc2c1 [compound 1400] | – | 80.39 | 12.41 |
| C=CCNC(=O)c1cc(-c2cccs2)on1 [compound 1192] | 279.74 | 95.64 | – |
| O=C(CSc1nnc(-c2ccncc2)o1)NCc1ccccc1Br [compound 1493] | – | 100.09 | 6.84 |
| O=C(Nc1nc(-c2ccccn2)cs1)c1ccc2ncsc2c1 [compound 1205] | 114.55 | 86.42 | – |
| COc1cc([C@@H]2c3cc4c(cc3C(OC3O[C@@H]5COC(C)O[C@H]5[C@H](O)[C@H]3O)C3COC(=O)[C@@H]32)OCO4)cc(OC)c1O (stereo partly shown) [compound 1224] | 89.52 | – | – |
| CCC(=O)NC(c1ccccc1Cl)c1cc([N+](=O)[O-])c2cccnc2c1O (stereo not shown) [compound 1074] | – | 75.55 | – |
| CC(C)C(=O)NC(c1ccc(C(C)C)cc1)c1cc([N+](=O)[O-])c2cccnc2c1O (stereo not shown) [compound 1071] | – | 81.62 | – |
| O=C(CCc1ccccc1)NC(c1ccc(Cl)cc1)c1ccc2cccnc2c1O (stereo not shown) [compound 1478] | – | 72.44 | – |
| COc1ccc(C(NC(=O)C(C)C)c2cc([N+](=O)[O-])c3cccnc3c2O)cc1OC (stereo not shown) [compound 1481] | – | 78.30 | – |
| CCCC(=O)NC(c1ccc(N(C)C)cc1)c1cc(Cl)c2cccnc2c1O (stereo not shown) [compound 1066] | – | 72.46 | – |
| CCCC(=O)NC(c1ccc(C(C)C)cc1)c1cc([N+](=O)[O-])c2cccnc2c1O (stereo not shown) [compound 1056] | – | 65.75 | – |
| CC(=O)NC(c1ccc(Br)cc1)c1ccc2cccnc2c1O (stereo not shown) [compound 1022] | – | 63.83 | – |
| CCCOCc1cc(CN2CCCCC2)c(O)c2ncccc12 [compound 1100] | – | 56.10 | – |
| Cc1ccc(C(NC(=O)C2CCCCC2)c2ccc3cccnc3c2O)cc1 (stereo not shown) [compound 1047] | – | 69.78 | – |
| Cc1ccc(S(=O)(=O)Nc2cc(Cl)c(O)c3ncccc23)cc1 [compound 1092] | – | 66.43 | – |
| COc1ccc(C(=O)NC(c2ccc(Cl)cc2)c2cc(Cl)c3cccnc3c2O)cc1 (stereo not shown) [compound 1014] | – | 28.33 | – |
| COc1ccc(C(NC(C)=O)c2ccc3cccnc3c2O)cc1OC (stereo not shown) [compound 1023] | – | 75.33 | – |
| COc1ccc(C(=O)NC(/C=C/c2ccccc2)c2cc(Cl)c3cccnc3c2O)cc1 (stereo not shown) [compound 1016] | – | 42.84 | – |
| Cc1ccnc(NC(c2cccc(Cl)c2)c2ccc3ccc(C)nc3c2O)c1 (stereo not shown) [compound 1080] | – | 72.44 | – |
| COc1ccc(C(=O)NC(c2ccco2)c2cc(Cl)c3cccnc3c2O)cc1 (stereo not shown) [compound 1012] | – | 60.73 | – |
| CCCCC(=O)NC(c1ccc(Cl)cc1)c1cc([N+](=O)[O-])c2cccnc2c1O (stereo not shown) [compound 1054] | – | 46.45 | – |
| CCCC(=O)NC(c1ccc(N(CC)CC)cc1)c1cc(Cl)c2cccnc2c1O (stereo not shown) [compound 1070] | – | 69.71 | – |
